Experiment [1] has as its target T1, LipDH-mCherry; yeast lipoamide dehydrogenase (Saccharomyces cerevisiae, UniProt P09624).
T1 sequence (P09624 22-499): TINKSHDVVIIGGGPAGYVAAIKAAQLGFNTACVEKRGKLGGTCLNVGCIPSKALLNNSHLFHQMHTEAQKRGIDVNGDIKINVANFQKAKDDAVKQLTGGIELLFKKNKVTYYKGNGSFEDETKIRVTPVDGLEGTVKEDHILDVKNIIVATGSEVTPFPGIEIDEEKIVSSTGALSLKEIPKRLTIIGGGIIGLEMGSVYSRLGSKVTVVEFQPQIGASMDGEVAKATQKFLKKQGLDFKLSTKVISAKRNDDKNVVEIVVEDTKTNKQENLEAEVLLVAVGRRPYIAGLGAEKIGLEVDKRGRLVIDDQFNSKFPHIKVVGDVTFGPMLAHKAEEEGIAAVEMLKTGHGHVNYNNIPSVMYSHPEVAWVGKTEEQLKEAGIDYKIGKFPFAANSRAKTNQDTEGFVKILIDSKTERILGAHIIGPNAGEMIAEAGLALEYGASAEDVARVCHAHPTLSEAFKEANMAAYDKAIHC
The experiment is described as follows: UV-Vis absorbance of purified protein. In kind it is binding. To be noted: 50 mM phosphate pH 7.5, 1 mM EDTA; bound as purified.

Experiment [2] deals with EcTrxR-mCherry (TrxR-mCherry); E. coli thioredoxin reductase (Escherichia coli, UniProt P0A9P4). The experiment is described as follows: UV-Vis absorbance of purified protein. The class given is binding. The note with it: 50 mM phosphate pH 7.5, 1 mM EDTA; bound as purified.
Experiment [3] concerns the target T1, LipDH-mCherry; yeast lipoamide dehydrogenase. The experiment is described as follows: quenching of flavin fluorescence. The note with it: 1 uM probe, 100 uM NADPH; poor substrate. In kind it is biochemical.

Each structure is given as a SMILES string.

Chain of EcTrxR-mCherry (TrxR-mCherry); E. coli thioredoxin reductase (P0A9P4 2-321): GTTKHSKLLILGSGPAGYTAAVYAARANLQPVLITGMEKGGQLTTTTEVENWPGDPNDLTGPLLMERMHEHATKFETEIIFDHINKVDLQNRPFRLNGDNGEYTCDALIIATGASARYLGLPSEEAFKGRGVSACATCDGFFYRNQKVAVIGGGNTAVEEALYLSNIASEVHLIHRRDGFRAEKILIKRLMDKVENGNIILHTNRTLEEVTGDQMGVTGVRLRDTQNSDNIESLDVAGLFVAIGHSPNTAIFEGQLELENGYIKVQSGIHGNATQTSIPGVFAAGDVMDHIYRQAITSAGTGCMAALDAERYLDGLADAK

As to `Cc1cc2nc3c(=O)[nH]c(=O)nc-3n(C[C@H](O)[C@H](O)[C@H](O)COP(=O)(O)OP(=O)(O)OC[C@H]3O[C@@H](n4cnc5c(N)ncnc54)[C@H](O)[C@@H]3O)c2cc1C` [FAD], the “UV-Vis absorbance of purified protein” value was “purified construct contained the expected complement of flavin and mCherry absorbance contributions” in experiment [1]; “found to contain the expected complement of flavin and mCherry” in experiment [2].

Regarding `NC(=O)C1=CN([C@@H]2O[C@H](COP(=O)(O)OP(=O)(O)OC[C@H]3O[C@@H](n4cnc5c(N)ncnc54)[C@H](OP(=O)(O)O)[C@@H]3O)[C@@H](O)[C@H]2O)C=CC1` [NADPH], the “quenching of flavin fluorescence (456/520 nm) on reduction” value in experiment [3] is on record as “the probe responds slowly to this pyridine nucleotide”.

The record behind these values is publication PMC5820181 (Biochemistry, 2018).
